Each structure is given as a SMILES string.

This passage reports IC50 results from ChEMBL document CHEMBL3714766, “Tetrahydroisoquinoline compounds and their use as pyruvate dehydrogenase kinase inhibitors” (2015).

The target of this assay is Pyruvate dehydrogenase kinase (Homo sapiens, UniProt Q15119+Q15120+Q16654+Q15118). In words: Binding affinity to pyruvate dehydrogenase kinase (unknown origin) by VER-00160364 probe based fluorescence polarization assay. Background: Fluorescence polarisation rises when a labelled molecule tumbles more slowly, as on binding a larger partner.
With `Cc1c(Cl)nc(Cl)nc1-c1ccc2c(c1)CC[C@H](C)N2C(=O)c1ccc(O)cc1O`, the IC50 – broadly, the concentration that gives 50% inhibition – was determined as 100 nM. As for `CC1CCc2cc(-c3ncccc3C#N)ccc2N1C(=O)c1ccc(O)cc1O` (stereo unspecified), the half-maximal inhibitory concentration (IC50) is listed as 100 nM. `Cc1cnc(Cl)nc1-c1ccc2c(c1)CCC(C)N2C(=O)c1ccc(O)cc1O` (stereo unspecified) gave an IC50 of 10 nM. Consider `COCCNc1ncc(C)c(-c2ccc3c(c2)CC[C@H](C)N3C(=O)c2ccc(O)cc2O)n1`, for which the IC50 came out at 100 nM. The value for `COc1ccc(CN(C)C(=O)c2ccc3c(c2)CC[C@@H](C)N3C(=O)c2ccc(O)cc2O)cc1` was 10000 nM; that for `C[C@H]1CCc2cc(-c3ccnc(N)n3)ccc2N1C(=O)c1ccc(O)cc1O` was 100 nM. The value for `CC1CCc2cc(-c3ccnn3C)ccc2N1C(=O)c1ccc(O)cc1O` (stereo unspecified) was 100 nM; that for `C[C@H]1CCc2cc(C(=O)N(C)Cc3ccc(F)cc3)ccc2N1C(=O)c1ccc(O)cc1O` was 100 nM; that for `Cc1cnc(-c2ccc3c(c2)CCC(C)N3C(=O)c2cc(Cl)c(O)cc2O)n1C` (stereo unspecified) was 1000 nM. In the case of `O=C(c1ccc(O)cc1O)N1CCCc2cc(-c3ncccc3C(F)(F)F)ccc21`, the IC50 was found to be 1000 nM.

The molecule `N#Cc1cccnc1-c1ccc2c(c1)CCCN2C(=O)c1ccc(O)cc1O` registered an IC50 of 1000 nM.

Take `C[C@H]1CCc2cc(C(=O)N(C)Cc3cc4ccccc4[nH]3)ccc2N1C(=O)c1ccc(O)cc1O`: the IC50 amounted to 100 nM.

As for `CC1CCc2cc(-c3ncccc3Cl)ccc2N1C(=O)c1ccc(O)cc1O` (stereo unspecified), the IC50 was 100 nM. The value for `Cc1cnc(NCCN(C)C)nc1-c1ccc2c(c1)CC[C@H](C)N2C(=O)c1ccc(O)cc1O` was 1000 nM; that for `CC1CCc2cc(C(=O)N(C)Cc3ccc(Cl)cc3)ccc2N1C(=O)c1cc(Cl)c(O)cc1O` (stereo unspecified) was 100 nM; that for `C[C@H]1CCc2cc(C(=O)N(C)Cc3ccnc(Cl)c3)ccc2N1C(=O)c1ccc(O)cc1O` was 100 nM.

Consider `Cc1nc(N(C)C)nc(-c2ccc3c(c2)CC[C@H](C)N3C(=O)c2ccc(O)cc2O)c1C`, for which the half-maximal inhibitory concentration (IC50) stood at 1000 nM. The value for `C[C@H]1CCc2cc(-c3nc(Cl)nc4c3COCC4)ccc2N1C(=O)c1ccc(O)cc1O` was 100 nM. `CC1CCc2cc(-c3ncccc3C(F)(F)F)ccc2N1C(=O)c1ccc(O)cc1O` (stereo unspecified) had an IC50 of 100 nM.

Turning to `C[C@H]1CCc2cc(C(=O)N(C)CC(F)(F)F)ccc2N1C(=O)c1ccc(O)cc1O`, the half-inhibitory concentration (IC50) is given as 100 nM.

In the case of `C[C@H]1CCc2cc(-c3nccc4occc34)ccc2N1C(=O)c1ccc(O)cc1O`, the concentration for half-maximal inhibition (IC50) was 1000 nM. With `C[C@H]1CCc2cc(C(=O)N(C)Cc3ccc4c(ccn4C)c3)ccc2N1C(=O)c1ccc(O)cc1O`, the IC50 is given as 100 nM.

`Cc1nc(C)c(-c2ccc3c(c2)CC[C@H](C)N3C(=O)c2ccc(O)cc2O)s1` displayed an IC50 of 1000 nM. With `O=C(c1ccc(O)cc1O)N1CCCc2cc(-c3ncccc3Cl)ccc21`, the IC50 was 1000 nM. `Cc1nc(C)c(-c2ccc3c(c2)CCCN3C(=O)c2ccc(O)cc2O)s1`: the IC50 worked out at 100 nM. The value for `CC1CCc2cc(-c3nccn3C)ccc2N1C(=O)c1ccc(O)cc1O` (stereo unspecified) was 100 nM; that for `CC1CCc2cc(-c3occc3C#N)ccc2N1C(=O)c1ccc(O)cc1O` (stereo unspecified) was 1000 nM.

`Cn1nccc1-c1ccc2c(c1)CCCN2C(=O)c1ccc(O)cc1O` yielded an IC50 of 100 nM.

On to `Cc1nccnc1-c1ccc2c(c1)CCC(C)N2C(=O)c1ccc(O)cc1O` (stereo unspecified), for which the IC50 worked out at 100 nM. Molecule `Cc1ccnnc1-c1ccc2c(c1)CCC(C)N2C(=O)c1ccc(O)cc1O` (stereo unspecified) registered an IC50 of 100 nM. Turning to `C[C@H]1CCc2cc(C(=O)N(C)Cc3ccc[n+](C)c3)ccc2N1C(=O)c1ccc(O)cc1O`, the IC50 is reported as 100 nM. The value for `Cn1ccnc1-c1ccc2c(c1)CCCN2C(=O)c1ccc(O)cc1O` was 1000 nM; that for `CC1CCc2cc(-c3nccn3C)ccc2N1C(=O)c1cc(Cl)c(O)cc1O` (stereo unspecified) was 1000 nM. Molecule `CCc1cnc(C)nc1-c1ccc2c(c1)CC[C@H](C)N2C(=O)c1ccc(O)cc1O` showed an IC50 of 100 nM.

As to `CC1CCc2cc(-c3ncccc3C(F)(F)F)ccc2N1C(=O)c1cc(Cl)c(O)cc1O` (stereo unspecified), the IC50 amounted to 1000 nM. The value for `CN(CCNC(=O)OC(C)(C)C)C(=O)c1ccc2c(c1)CCCN2C(=O)c1ccc(O)cc1O` was 1000 nM; that for `Cc1cccnc1-c1ccc2c(c1)CC[C@@H](C)N2C(=O)c1ccc(O)cc1O` was 10000 nM. The value for `Cc1nc(C)c(-c2ccc3c(c2)CCC(C)N3C(=O)c2ccc(O)cc2O)s1` (stereo unspecified) was 10 nM. The value for `C[C@H]1CCc2cc(-c3ncccc3Cl)ccc2N1C(=O)c1ccc(O)cc1O` was 100 nM; that for `Cc1cccnc1-c1ccc2c(c1)CCCN2C(=O)c1ccc(O)cc1O` was 1000 nM. As to `Cc1cn(C)c(-c2ccc3c(c2)CCC(C)N3C(=O)c2cc(Cl)c(O)cc2O)n1` (stereo unspecified), the IC50 amounted to 1000 nM.

The molecule `C[C@H]1CCc2cc(C(=O)N(C)Cc3ccnc4ccccc34)ccc2N1C(=O)c1ccc(O)cc1O` had a 50% inhibitory concentration (IC50) of 10 nM. The value for `C[C@H]1CCc2cc(C(=O)N(C)C)ccc2N1C(=O)c1ccc(O)cc1O` was 100 nM; that for `Cc1cccnc1-c1ccc2c(c1)CCCN2C(=O)c1cc(C(F)(F)F)c(O)cc1O` was 10000 nM. The value for `C[C@H]1CCc2cc(C(=O)N(C)Cc3ccc(Cl)cc3)ccc2N1C(=O)c1ccc(O)cc1O` was 100 nM; that for `Cc1cccnc1-c1ccc2c(c1)CC[C@H](C)N2C(=O)c1ccc(O)cc1O` was 100 nM; that for `Cc1ccnnc1-c1ccc2c(c1)CC[C@H](C)N2C(=O)c1ccc(O)cc1O` was 100 nM. Consider `C[C@H]1CCc2cc(C(=O)N3CCN(C(=O)OC(C)(C)C)CC3)ccc2N1C(=O)c1ccc(O)cc1O`, for which the IC50 worked out at 1000 nM.

`Cc1cccnc1-c1ccc2c(c1)CCC(C)N2C(=O)c1ccc(O)cc1O` (stereo unspecified) came in with an IC50 of 100 nM. The value for `C[C@H]1CCc2cc(-c3ncccc3C(F)(F)F)ccc2N1C(=O)c1ccc(O)cc1O` was 100 nM. The value for `Cc1cnc(Cl)nc1-c1ccc2c(c1)CC[C@@H](C)N2C(=O)c1ccc(O)cc1O` was 10000 nM; that for `C[C@H]1CCc2cc(-c3nc(C(F)(F)F)ccc3C(F)(F)F)ccc2N1C(=O)c1ccc(O)cc1O` was 1000 nM; that for `CC1CCc2cc(-c3ncccc3Cl)ccc2N1C(=O)c1cc(Cl)c(O)cc1O` (stereo unspecified) was 1000 nM. The value for `Cc1nc(C)c(-c2ccc3c(c2)CCC(C)N3C(=O)c2cc(Cl)c(O)cc2O)s1` (stereo unspecified) was 1000 nM. `Cc1nc(N)ccc1-c1ccc2c(c1)CC[C@H](C)N2C(=O)c1ccc(O)cc1O`: the IC50 came out at 100 nM.

With `C[C@H]1CCc2cc(-c3ncccc3C#N)ccc2N1C(=O)c1ccc(O)cc1O`, the IC50 is reported as 100 nM.

Consider `C[C@@H]1CCc2cc(C(=O)N(C)C)ccc2N1C(=O)c1ccc(O)cc1O`, for which the IC50 came to 10000 nM.

Molecule `Cc1cccnc1-c1ccc2c(c1)CCC(C)N2C(=O)c1cc(Cl)c(O)cc1O` (stereo unspecified) gave an IC50 of 100 nM. The value for `Cc1cnc(NC(C)C)nc1-c1ccc2c(c1)CC[C@H](C)N2C(=O)c1ccc(O)cc1O` was 100 nM.

Molecule `CC1CCc2cc(-c3ncccc3C#N)ccc2N1C(=O)c1cc(Cl)c(O)cc1O` (stereo unspecified) displayed a half-maximal inhibitory concentration (IC50) of 1000 nM. For the molecule `C[C@H]1CCc2cc(C(=O)N(C)Cc3cccc4c3ccc[n+]4C)ccc2N1C(=O)c1ccc(O)cc1O`, the IC50 is 100 nM.
